We go through three molecules from publication PMC11834182 (Parasites & Vectors, 2025).

Read-outs that look alike come from different tables or passages of the source.

The target in data set [1] is T1, rPpAChE1 (Phlebotomus papatasi, UniProt M1F887). Description: biochemical. More on the design: gene AChE; PpAChE1 cDNA in pBlueBac4.5/V5-His, baculovirus expression in Sf21 cells, expression supernatant; species or system Sf21 (expression host).
Data set [2] concerns the target T1, rPpAChE1. Nature of the data set: biochemical. On the set-up: gene AChE.
A further data set concerns CC(=O)SCC[N+](C)(C)C. Nature of the data set: cells, lysate or membranes. To be noted: pH 7.0.

For orientation: IC50 means the concentration that gives 50% inhibition. `CCOC(=O)CC(SP(=O)(OC)OC)C(=O)OCC` (stereo not shown) [Maloxon]: half-maximal inhibition against rPpAChE1 [1] (IC50) was put at 0.044 µM.

On rPpAChE1 [2], `c1ccc2c(NCCCCCCCNc3c4c(nc5ccccc35)CCCC4)c3c(nc2c1)CCCC3` [bis(7)-tacrine] registered an IC50 of 0.004 µM.

By Km is commonly meant the substrate concentration at which the rate is half of its maximum. In general, Vmax refers to the rate approached at saturating substrate. Regarding rPpAChE1 (Phlebotomus papatasi), in the data set on CC(=O)SCC[N+](C)(C)C, the Km came out at 123 ± 25 µM and the Vmax amounted to 74 ± 6.7 µmol/min/mg.
